How the values were obtained:
Type in all cases: cell-based
recombinant CYP-17 = target: T1, recombinant CYP-17 (Homo sapiens, UniProt P05093); test: Cyp17 assay: 3H-acetic acid release from [21-3H] 17α-hydroxyl-Pregnenolone in AD293 cells; conditions: AD293 cells stably over-expressing recombinant CYP-17; eight concentrations 10 μM to 4.5 nM
T1 construct: expressed in transfected cells
T1 sequence (P05093 1-508): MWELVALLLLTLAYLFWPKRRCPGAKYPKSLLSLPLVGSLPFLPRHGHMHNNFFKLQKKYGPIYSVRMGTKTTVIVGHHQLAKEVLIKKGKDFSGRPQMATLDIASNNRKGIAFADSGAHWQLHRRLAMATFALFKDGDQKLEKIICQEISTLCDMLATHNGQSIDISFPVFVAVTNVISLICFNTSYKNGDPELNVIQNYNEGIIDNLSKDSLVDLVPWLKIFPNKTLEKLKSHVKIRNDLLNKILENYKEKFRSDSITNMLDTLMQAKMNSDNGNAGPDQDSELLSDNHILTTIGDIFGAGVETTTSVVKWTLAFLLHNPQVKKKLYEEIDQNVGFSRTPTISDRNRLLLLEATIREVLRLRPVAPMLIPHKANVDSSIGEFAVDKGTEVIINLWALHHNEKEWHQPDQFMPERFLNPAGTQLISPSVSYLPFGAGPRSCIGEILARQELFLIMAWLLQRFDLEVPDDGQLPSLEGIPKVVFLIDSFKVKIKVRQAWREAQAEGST
Protocol: Cyp17 assay protocol: AD293 cells that stably over-express recombinant CYP-17 were seeded in 96 well plates coated with poly D-lysine (15,000 cell per well) and incubated at 37° C. for 24 hours in Dulbecco's Modified Eagle Medium (DMEM) with Fetal Bovine Serum (FBS) that is stripped of hormones by charcoal treatment. The media is then removed, the cells are washed once with Phosphate buffer saline solution, and 50 μL Dulbecco's Modified Eagle Medium (DMEM) with Fetal Bovine Serum (FBS) that is stripped of hormones by charcoal treatment is added. Compounds of the disclosure are then added to the wells in eight concentration spanning 10 μM to 4.5 nM, and the plates are incubated for an additional 60 minutes at 37° C. [21-^3H] 17α-hydroxyl-Pregnenolone is then added (50 nCi per well, 31.25 nM) and the plates are incubated for an additional 4 hours at 37° C. The media is then collected, 200 μL of chloroform is added, and the mixture is shaken for 1 hour. The aqueous layer is then separated and analyzed for the presence of ^3H-acetic acid using a Perkin Elmer Topcount NXT to determine IC50s of the compounds of the disclosure.

recombinant CYP-11 = target: T2, recombinant CYP-11 (Homo sapiens, UniProt P15538); test: Cyp11 assay: cortisol formation from 11-deoxycortisol in AD293 cells, LC/MS; conditions: AD293 cells stably over-expressing recombinant CYP-11; eight concentrations 10 μM to 4.5 nM
T2 construct: expressed in transfected cells
T2 sequence (P15538 25-503): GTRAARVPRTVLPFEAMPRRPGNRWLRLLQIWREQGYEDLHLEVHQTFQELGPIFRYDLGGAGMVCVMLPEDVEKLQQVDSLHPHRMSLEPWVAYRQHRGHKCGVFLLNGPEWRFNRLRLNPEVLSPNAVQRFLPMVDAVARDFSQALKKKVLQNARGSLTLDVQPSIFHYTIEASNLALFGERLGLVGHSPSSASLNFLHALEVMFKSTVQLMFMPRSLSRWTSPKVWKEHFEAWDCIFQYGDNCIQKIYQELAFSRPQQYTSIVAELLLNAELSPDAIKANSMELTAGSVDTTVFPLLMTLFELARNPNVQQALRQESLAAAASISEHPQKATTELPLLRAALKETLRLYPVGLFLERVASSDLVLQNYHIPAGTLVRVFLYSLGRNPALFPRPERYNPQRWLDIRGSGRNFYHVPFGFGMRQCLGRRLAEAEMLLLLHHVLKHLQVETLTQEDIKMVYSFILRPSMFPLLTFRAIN
Protocol: Cyp11 assay protocol: AD293 cells that stably over-express recombinant CYP-11 were seeded in 96 well plates coated with poly D-lysine (15,000 cell per well) and incubated at 37° C. for 24 hours in Dulbecco's Modified Eagle Medium (DMEM) with Fetal Bovine Serum (FBS) that is stripped of hormones by charcoal treatment. The media is then removed, the cells are washed once with Phosphate buffer saline solution, and 50 μL Dulbecco's Modified Eagle Medium (DMEM) with Fetal Bovine Serum (FBS) that is stripped of hormones by charcoal treatment is added. Compounds of the disclosure are then added to the wells in eight concentration spanning 10 μM to 4.5 nM, and the plates are incubated for an additional 60 minutes at 37° C. 11-deoxycortisol is then added ([…]) and the plates are incubated for an additional 12 hours at 37° C. After incubation, 50 uL of the supernatant (medium) is transferred into a fresh plate and 150 uL of an acetonitrile solution containing 200 ng/ml of Telmisartan is added. The sample is mixed and then placed in a centrifuge at 2000 rpm for 5 minutes. 100 uL of the supernatant is transferred into a fresh 96 well deep well plate, 100 uL of 1:1 methanol: water was added, the solution was mixed and then analyzed by LC/MS for the presence of cortisol using an Agilent 1200 RRLC/ABSCIEX API4000 LC-MS or Shimadzu Prominance/ABSCIEX API4000 LC-MS to determine IC50s of the compounds of the disclosure.

recombinant CYP-21 = target: T3, recombinant CYP-21 (Homo sapiens, UniProt P08686); test: Cyp21 assay: 11-deoxycortisol formation from 17-OH Progesterone in AD293 cells, LC/MS; conditions: AD293 cells stably over-expressing recombinant CYP-21; eight concentrations 10 μM to 4.5 nM
T3 construct: expressed in transfected cells
T3 sequence (P08686 1-495): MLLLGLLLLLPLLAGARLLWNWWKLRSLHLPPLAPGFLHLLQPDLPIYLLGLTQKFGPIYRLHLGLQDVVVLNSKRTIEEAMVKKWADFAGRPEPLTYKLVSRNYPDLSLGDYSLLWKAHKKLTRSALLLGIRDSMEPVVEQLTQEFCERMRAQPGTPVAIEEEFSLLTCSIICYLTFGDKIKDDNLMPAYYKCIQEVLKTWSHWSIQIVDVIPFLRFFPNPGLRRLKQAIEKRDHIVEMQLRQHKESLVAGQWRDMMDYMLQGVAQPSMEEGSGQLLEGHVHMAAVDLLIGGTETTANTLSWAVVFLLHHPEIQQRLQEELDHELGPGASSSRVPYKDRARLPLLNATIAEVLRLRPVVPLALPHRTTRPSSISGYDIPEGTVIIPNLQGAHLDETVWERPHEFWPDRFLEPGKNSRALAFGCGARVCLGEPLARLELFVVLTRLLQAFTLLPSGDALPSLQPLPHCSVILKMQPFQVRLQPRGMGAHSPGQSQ
Protocol: Cyp21 assay protocol: AD293 cells that stably over-express recombinant CYP-21 were seeded in 96 well plates coated with poly D-lysine (10,000 cell per well) and incubated at 37° C. for 24 hours in Dulbecco's Modified Eagle Medium (DMEM) with Fetal Bovine Serum (FBS) that is stripped of hormones by charcoal treatment. The media is then removed, the cells are washed once with Phosphate buffer saline solution, and 50 μL Dulbecco's Modified Eagle Medium (DMEM) with Fetal Bovine Serum (FBS) that is stripped of hormones by charcoal treatment is added. Compounds of the disclosure are then added to the wells in eight concentration spanning 10 μM to 4.5 nM, and the plates are incubated for an additional 60 minutes at 37° C. 17-OH Progesterone is then added ([…]) and the plates are incubated for an additional 45 minutes at 37° C. After incubation, 50 uL of the supernatant (medium) is transferred into a fresh plate and 150 uL of an acetonitrile solution containing 200 ng/ml of Telmisartan is added. The sample is mixed and then placed in a centrifuge at 2000 rpm for 5 minutes.

Compound: COc1cc(F)ccc1-c1ccc(C(c2ccncc2)N2CCOCC2)cc1 (stereo not drawn) [Entry 17, 4-((4′-fluoro-2′-methoxy-[1,1′-biphenyl]-4-yl)(pyridin-4-yl)methyl)morpholine]
- IC50 (recombinant CYP-17): 28 nM
- IC50 (recombinant CYP-11): ≥ 10000 nM
- IC50 (recombinant CYP-21): ≥ 10000 nM

Compound: COc1cc(F)ccc1-c1ccc(C(c2ccncc2)N2CCCC2)cc1 (stereo not drawn) [Entry 19, 4-((4′-fluoro-2′-methoxy-[1,1′-biphenyl]-4-yl)(pyrrolidin-1-yl)methyl)pyridine]
- IC50 (recombinant CYP-17): 254 nM
- IC50 (recombinant CYP-11): ≥ 10000 nM
- IC50 (recombinant CYP-21): ≥ 10000 nM

Compound: COc1ccc(-c2ccc(C(F)(F)c3ccncc3)cc2)cc1OC [Entry 8]
- IC50 (recombinant CYP-17): 34 nM
- IC50 (recombinant CYP-11): ≥ 10000 nM
- IC50 (recombinant CYP-21): 408 nM

Compound: COc1cc(F)ccc1-c1ccc(C(NCCNC(=O)OC(C)(C)C)c2ccncc2)cc1 (stereo not drawn) [Entry 25, tert-butyl(2-(((4′-fluoro-2′-methoxy-[1,1′-biphenyl]-4-yl)(pyridin-4-yl)methyl)amino)ethyl)carbamate]
- IC50 (recombinant CYP-17): 31 nM
- IC50 (recombinant CYP-11): 4200 nM
- IC50 (recombinant CYP-21): 4000 nM

Compound: COc1cc(F)ccc1-c1ccc(C(c2ccncc2)N2CCN(C(C)=O)CC2)cc1 (stereo not drawn) [Entry 27, 1-(4-((4′-fluoro-2′-methoxy-[1,1′-biphenyl]-4-yl)(pyridin-4-yl)methyl)piperazin-l-yl)ethanone]
- IC50 (recombinant CYP-17): 22 nM
- IC50 (recombinant CYP-11): ≥ 10000 nM
- IC50 (recombinant CYP-21): ≥ 10000 nM

Compound: COc1cc(F)ccc1-c1ccc(C(c2ccncc2)N2CCC(O)CC2)cc1 (stereo not drawn) [Entry 29, 1-((4′-fluoro-2′-methoxy-[1,1′-biphenyl]-4-yl)(pyridin-4-yl)methyl)piperidin-4-ol]
- IC50 (recombinant CYP-17): 12 nM
- IC50 (recombinant CYP-11): ≥ 10000 nM
- IC50 (recombinant CYP-21): 4000 nM

Compound: COc1cccc(-c2ccc(C(c3ccncc3)N3CCCCC3)cc2)c1 (stereo not drawn) [Entry 31, 4-((3′-methoxy-[1,1′-biphenyl]-4-yl)(piperidin-1-yl)methyl)pyridine]
- IC50 (recombinant CYP-17): 27 nM
- IC50 (recombinant CYP-11): ≥ 10000 nM
- IC50 (recombinant CYP-21): 2400 nM

Compound: COc1cc(F)ccc1-c1ccc(C(c2ccncc2)N2CCN(C3CCCC3)CC2)cc1 (stereo not drawn) [Entry 21, 1-cyclopentyl-4-((4′-fluoro-2′-methoxy-[1,1′-biphenyl]-4-yl)(pyridin-4-yl)methyl)piperazine]
- IC50 (recombinant CYP-17): 900 nM
- IC50 (recombinant CYP-11): ≥ 10000 nM
- IC50 (recombinant CYP-21): ≥ 10000 nM

Compound: COc1cc(F)ccc1-c1ccc(C(c2ccncc2)N2CCCCC2)cc1 (stereo not drawn) [Entry 18, 4-((4′-fluoro-2′-methoxy-[1,1′-biphenyl]-4-yl)(piperidin-1-yl)methyl)pyridine]
- IC50 (recombinant CYP-17): 770 nM
- IC50 (recombinant CYP-11): ≥ 10000 nM
- IC50 (recombinant CYP-21): ≥ 10000 nM

Compound: COc1cc(F)ccc1-c1ccc(C(NCCN)c2ccncc2)cc1 (stereo not drawn) [Entry 26, N1-((4′-fluoro-2′-methoxy-[1,1′-biphenyl]-4-yl)(pyridin-4-yl)methyl)ethane-1,2-diamine]
- IC50 (recombinant CYP-17): 120 nM
- IC50 (recombinant CYP-11): ≥ 10000 nM
- IC50 (recombinant CYP-21): ≥ 10000 nM

Compound: COc1cc(F)ccc1-c1ccc(C2(c3ccncc3)OCC(C)CO2)cc1 (stereo not drawn) [Entry 5, 4-[2-(4′-Fluoro-2′-methoxy-biphenyl-4-yl)-5-methyl-[1,3]dioxan-2-yl]-pyridine]
- IC50 (recombinant CYP-17): 126 nM
- IC50 (recombinant CYP-11): ≥ 10000 nM
- IC50 (recombinant CYP-21): 520 nM

Compound: COc1cc(F)ccc1-c1ccc(C(c2ccncc2)N2CCNCC2)cc1 (stereo not drawn) [Entry 30, 1-((4′-fluoro-2′-methoxy-[1,1′-biphenyl]-4-yl)(pyridin-4-yl)methyl)piperazine]
- IC50 (recombinant CYP-17): 1000 nM
- IC50 (recombinant CYP-11): ≥ 10000 nM
- IC50 (recombinant CYP-21): ≥ 10000 nM

Compound: CCN1CCN(C(c2ccncc2)c2ccc(-c3ccc(F)cc3OC)cc2)CC1 (stereo not drawn) [Entry 28, 1-ethyl-4-((4′-fluoro-2′-methoxy-[1,1′-biphenyl]-4-yl)(pyridin-4-yl)methyl)piperazine]
- IC50 (recombinant CYP-17): 117 nM
- IC50 (recombinant CYP-11): ≥ 10000 nM
- IC50 (recombinant CYP-21): ≥ 10000 nM

Source: patent US20150210641A1, “NOVEL CYTOCHROME P450 INHIBITORS AND THEIR METHOD OF USE” (CORTENDO AB (PUBL), priority 2014, published 2015)
